The values below are quoted from earlier work in PMC9549396 (Proceedings of the National Academy of Sciences of the …, 2022).

One may read the IC50 as the midpoint of a concentration-inhibition curve.

This series addresses PI3KC2β (Homo sapiens, UniProt O00750). Description: lipid kinase activity inhibition. The series is classed as biochemical.

PI3KC2β, sequence (O00750 whole entry): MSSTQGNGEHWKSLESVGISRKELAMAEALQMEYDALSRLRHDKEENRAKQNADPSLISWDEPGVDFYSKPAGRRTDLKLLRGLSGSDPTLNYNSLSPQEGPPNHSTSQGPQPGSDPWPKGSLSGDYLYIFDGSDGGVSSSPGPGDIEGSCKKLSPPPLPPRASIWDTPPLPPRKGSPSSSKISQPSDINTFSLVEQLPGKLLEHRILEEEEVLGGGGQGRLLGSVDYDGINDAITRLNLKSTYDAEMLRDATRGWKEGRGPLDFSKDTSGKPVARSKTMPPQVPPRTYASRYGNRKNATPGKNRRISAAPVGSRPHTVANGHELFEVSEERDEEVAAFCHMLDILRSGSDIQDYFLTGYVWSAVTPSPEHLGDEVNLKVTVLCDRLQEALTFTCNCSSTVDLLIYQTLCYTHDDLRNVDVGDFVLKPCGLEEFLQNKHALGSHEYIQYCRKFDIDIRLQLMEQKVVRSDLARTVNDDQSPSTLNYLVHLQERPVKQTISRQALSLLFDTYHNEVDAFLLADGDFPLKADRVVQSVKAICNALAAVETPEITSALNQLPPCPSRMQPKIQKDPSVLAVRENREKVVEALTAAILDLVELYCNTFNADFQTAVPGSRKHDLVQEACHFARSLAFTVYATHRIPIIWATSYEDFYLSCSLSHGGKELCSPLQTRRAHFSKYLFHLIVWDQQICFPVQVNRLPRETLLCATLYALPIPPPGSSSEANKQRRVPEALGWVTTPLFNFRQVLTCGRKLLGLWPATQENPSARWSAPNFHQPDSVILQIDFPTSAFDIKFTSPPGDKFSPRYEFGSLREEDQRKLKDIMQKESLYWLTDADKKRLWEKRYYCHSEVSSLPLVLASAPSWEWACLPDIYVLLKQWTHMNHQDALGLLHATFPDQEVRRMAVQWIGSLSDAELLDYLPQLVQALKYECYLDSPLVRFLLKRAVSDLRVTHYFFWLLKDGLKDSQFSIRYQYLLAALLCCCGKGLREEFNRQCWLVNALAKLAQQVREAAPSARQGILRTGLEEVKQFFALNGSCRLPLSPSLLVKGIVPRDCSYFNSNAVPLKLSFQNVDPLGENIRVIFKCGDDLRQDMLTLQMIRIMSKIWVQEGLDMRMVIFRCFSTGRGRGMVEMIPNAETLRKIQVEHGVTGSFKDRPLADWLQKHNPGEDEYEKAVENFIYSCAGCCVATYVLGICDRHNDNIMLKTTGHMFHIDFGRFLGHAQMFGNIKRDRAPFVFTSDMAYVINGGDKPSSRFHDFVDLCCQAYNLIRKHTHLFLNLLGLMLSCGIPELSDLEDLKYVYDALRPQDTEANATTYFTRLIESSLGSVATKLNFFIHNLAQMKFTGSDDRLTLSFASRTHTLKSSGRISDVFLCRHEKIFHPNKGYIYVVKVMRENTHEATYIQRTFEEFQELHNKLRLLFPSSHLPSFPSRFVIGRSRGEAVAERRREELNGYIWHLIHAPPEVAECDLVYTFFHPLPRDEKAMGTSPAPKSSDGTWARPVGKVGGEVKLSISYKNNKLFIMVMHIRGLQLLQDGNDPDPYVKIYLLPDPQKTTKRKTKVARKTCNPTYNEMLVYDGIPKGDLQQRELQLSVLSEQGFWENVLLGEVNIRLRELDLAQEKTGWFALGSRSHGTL

As for PITCOIN2, the IC50 was 1500 nM.
